# Assay results from US10919896B2, “Preparation and uses of pyrimidinone derivatives” (Cancer Research Technology Limited, priority 2016, dated 2021).
# Structures can show the parent of a compound that is named as a salt.
# System: Cdc7 (pS53MCM2 levels in SW48 cells)
# Assay: Cdc7 Cell Pharmacodynamics Assay Method 3: pS53MCM2 levels in SW48 cells, 6 hours
# Assay type: cell-based
# Details: Homo sapiens, SW48, 6 h, read-out: Biomarker Method 3 (pEC50) (converted)
row,SMILES,EC50 [nM]
1,"O=c1[nH]c(-c2ccnc(F)c2)nc(N2CCCC(F)(F)C2)c1Cl [Compound 90, 5-chloro-4-(3,3-difluoro-1-piperidyl)-2-(2-fluoro-4-pyridyl)-1H-pyrimidin-6-one]",589
2,"O=c1[nH]c(-c2ccnc(F)c2)nc(N2CCNCC(F)(F)C2)c1Cl [Compound 312, 5-chloro-4-(6,6-difluoro-1,4-diazepan-1-yl)-2-(2-fluoro-4-pyridyl)-1H-pyrimidin-6-one hydrochloride]",145
3,O=c1[nH]c(-c2ccncc2)nc(N2CCN[C@H](C(F)(F)F)C2)c1Cl [Compound 139],4070
4,C[C@@H]1CNCCN1c1nc(-c2ccnc(F)c2)[nH]c(=O)c1Cl [Compound 323],79.4
5,O=c1[nH]c(-c2ccncc2)nc(N2CCN[C@@H](C(F)(F)F)C2)c1Cl [Compound 180],339
